The values that follow come from the AptaBench aptamer set (doi:10.1093/nar/gkaf219).

Conditions in all cases: 10 mM Tris-HCl, pH 7.4
Test [1] concerns DNA aptamer or structured DNA GGGACGACGGCACGAGGTTATTCGTTGGTTGCACTGCGCTGGGAGGAAGTCGTCCC
The test system of test [2] is DNA aptamer or structured DNA GGGACGACTAGTGCCTTCGTGTTGTTCGGGAATCCGGTTCTGTCGTCCC
The test system of test [3] is DNA aptamer or structured DNA GGGACGACGCGTACTTCCAGTAGCCGTGCGTCGTTCAAGTCGTCCC
The subject of test [4] is DNA aptamer or structured DNA GGGACGACGGCACGAGGTTAATCGTTGGTTGCACTGCGCTGGGAGGCAGTCGTCCC
For test [5], the system named is DNA aptamer or structured DNA GGGACGACATGGGATGGAGCTATGCGAGCATGTGGTGTGTCGTCCC
For test [6], the system named is DNA aptamer or structured DNA TTCAAATCTGCGGCGACTAATTCTTAGTGGTGGTTGCAATGCGCTGGGATGAGTCTAGATTTGAA
For test [7], the system named is DNA aptamer or structured DNA GGGACGACAAGTACCAAGGGTAGCTCTGCGTTGTTCGAGGTCGTCCC
Test [8] relates to DNA aptamer or structured DNA GGGACGACAGGGATTCGCGGATTCGGAGAAAAGGGCTCGTACGTCGTCCC
Test [9] relates to DNA aptamer or structured DNA GGGACGACTAGTGCCTTCGCGTTGTTCGGGAATCCGGTTCCGTCGTCCC
Test [10] deals with DNA aptamer or structured DNA GGGACGACGGGGATTCGGTTCGTCATTTGGCAGTGCCTCGTACGTCGTCCC
For test [11], the system named is DNA aptamer or structured DNA TTCAAATCTAGCGCAGGTAGGGGTGTAGGCGTGGGGGTAAGTCTAGATTTGAA
In test [12] the test system is DNA aptamer or structured DNA GGGACGACCAGAATGGAAGCATTGGTTGCCGCAGGGTGCCGCAGTCGTCCC
The subject of test [13] is DNA aptamer or structured DNA GGGACGACGGGGGGCTTTAGGGTGTAGGAGTGGGGTGAGTCGTCCC
The subject of test [14] is DNA aptamer or structured DNA GGGACGACTAGCCCTAGCGTTGTTCGAGTCCATGAGTAGTCGTCCC
Test [15] concerns DNA aptamer or structured DNA CTTACGACAAGGGATGTTTGTTAGTGTGTCGGTGCATTGTCGTAAG
Test [16] concerns DNA aptamer or structured DNA TTCAAATCTGGTGCCCTTTCGCAGTCGGTTGGTAATGAGACCACTTTAGAGTCTAGATTTGAA
The test system of test [17] is DNA aptamer or structured DNA GGGACGACCGGACTTGGGTGGGTGCTGGGGCTTGGGCGGTCGTCCC
In test [18] the test system is DNA aptamer or structured DNA GGGACGACTAGTGCCTTCGCGTTGTACGGGAATCCGGTTCTGTCGTCCC
Test [19] concerns DNA aptamer or structured DNA GGGACGACAGGGATTCGGTTCTCGATAAGTAGTGCCTCGTACGTCGTCCC
The subject of test [20] is DNA aptamer or structured DNA GGGACGACGCGTACCTGTGGTAGTCGTACGTCGTTCAAGTCGTCCC
Test [21] relates to DNA aptamer or structured DNA GGGACGACCGGCTGTCTGGATGCATTGCGCCGGGAACTCGGACGGATGGTCGTCCC
For test [22], the system named is DNA aptamer or structured DNA GGGACGACGCACTATGGCTAGGGTTGGTACGGTCGTGAACCGCGGGGTGTCGTCCC
Test [23] deals with DNA aptamer or structured DNA CTTACGACTAGGTGTGGGTCGGCGCTAGGGGCAGGGTAGTCGTAAG
Test [24] relates to DNA aptamer or structured DNA CTTACGACTTACTTTTGGGTTGTCTGGGTGGGAGGTATGTCGTAAG
Test [25] deals with DNA aptamer or structured DNA CTTACGACGGTGGGGGGTTGGTAGGGGAGGAGCGCATCGTCGTAAG
For test [26], the system named is DNA aptamer or structured DNA GGGACGACTAGCCCGGCGTTGTTCGAGTGCAGCGAGTAGTCGTCCC
Test [27] relates to DNA aptamer or structured DNA GGGACGACCGTTGGCGAGTGTGTCCGGGGACTACAGGGGTCGTCCC
For test [28], the system named is DNA aptamer or structured DNA GGGACGACGGGGGGAGTTTGTTTGTGTGGGAGGGTCCAGTCGTCCC
Test [29] deals with DNA aptamer or structured DNA GGGACGACGCGCATGTGGTGTCGGTCAGATGGGATGAAGTCGTCCC
Test [30] relates to DNA aptamer or structured DNA GGGACGACCGTTGTTCGAGCCTTGAGTACCATTGGTAGGTCGTCCC
For test [31], the system named is DNA aptamer or structured DNA GGGACGACGCGTAGGTTCCCTAGCTGTGCGTCGTTCAAGTCGTCCC
The test system of test [32] is DNA aptamer or structured DNA GGGACGACGCGTAGGTTTCCTAGCTGTGCGTCGTTCAAGTCGTCCC
Throughout, for binding call: call rule not given here.

Regarding `C=C[C@H]1CN2CC[C@@H]1C[C@H]2[C@H](O)c1ccnc2ccc(OC)cc12`, the binding call in [1] is reported as “binds”; in test [2], “no binding”; in test [3], “no binding”; in test [4], “no binding”; in test [5] it was “binds”; in test [6], “binds”. The binding call in [7], in [8] and in test [9] was “no binding” each time.

In the case of `CCN(CC)CCOC(=O)c1ccc(N)cc1`, the binding call in test [10], in test [11], in test [12], in test [2], in [13] and in [14] was “no binding” in each case. The binding call in test [15], in test [16], in [17], in [18], in test [8] and in [19] was “no binding” each time. For the same compound, in test [20], the binding call is “no binding”.

As to `NCCc1c[nH]c2ccc(O)cc12`, the binding call in test [21] was “no binding”; in [11] it was “no binding”; in test [22], “no binding”; in test [2], “no binding”; in test [23] it was “binds”; in test [13], “no binding”. The binding call in [24], in [15], in test [6], in [18], in test [8] and in [19] was “no binding” in each case. Also, the binding call in test [9] and in test [25] was “no binding” in each case.

`O=C1CC[C@@]2(O)[C@H]3Cc4ccc(O)c5c4[C@@]2(CCN3CC2CC2)[C@H]1O5`: the binding call in test [26], in test [2], in [3], in [14], in [17] and in [18] was “no binding” in each case. In addition, the binding call in test [7], in test [8], in [19] and in test [20] was “no binding” in each case.

Regarding `Cn1c(=O)c2c(ncn2C)n(C)c1=O`, the binding call in [26] is “no binding”; in [27], “no binding”; in test [28], “binds”; in test [29] it was “binds”; in [30] it was “no binding”; in [31], “no binding”. For the same compound, the binding call in [6] is “no binding”; in [17], “binds”; in [7], “no binding”; in test [25], “no binding”.

With `CN(C)CCOC(c1ccccc1)c1ccccc1`, the binding call is reported as “no binding” in test [11]; “no binding” in [22]; “no binding” in test [2]; “binds” in test [13]; “no binding” in [17]; “no binding” in test [18]. The binding call in test [7], in test [19], in test [9] and in [32] was “no binding” each time.

Consider `CCOC(=O)c1ccc(N)cc1`, for which the binding call in test [11], in test [27], in [23], in test [30], in test [14] and in test [31] was “no binding” each time. In addition, the binding call in test [17], in [7] and in [25] was “no binding” in each case.

With `NCCc1ccc(O)c(O)c1`, the binding call in [21] is “binds”; in [10], “no binding”; in test [22], “binds”; in test [1], “no binding”; in [2] it was “no binding”; in [23] it was “no binding”. Also, the binding call is listed as “no binding” in [24]; “binds” in test [4]; “binds” in test [15]; “binds” in [16]; “no binding” in [18]; “no binding” in test [8]. In addition, the binding call in test [19] and in test [25] was “no binding” each time.

`CC(=O)Oc1ccc2c3c1O[C@H]1[C@@H](OC(C)=O)C=C[C@H]4[C@@H](C2)N(C)CC[C@@]341`: the Kd is 2390 nM in test [26]; 1610 nM in [27]; 4.08 µM in test [3]; 2280 nM in test [30]; 3.31 µM in [14]; 3.4 µM in [31]. Moreover, the Kd in [7] came to 2180 nM; in test [32], 4.57 µM; in test [20], 4.52 µM. Further, the binding call in [13] and in test [24] was “no binding” each time.

Regarding `C=CCN1CC[C@]23c4c5ccc(O)c4O[C@H]2C(=O)CC[C@@]3(O)[C@H]1C5`, the binding call in test [26], in [27], in test [2], in [3], in test [30] and in test [14] was “no binding” throughout. In addition, the binding call in test [31], in [5], in test [17], in test [7], in [19] and in [32] was “no binding” in each case. The binding call in test [20] is reported as “no binding”.

For `COC(=O)[C@@H]1C2CCC(C[C@@H]1OC(=O)c1ccccc1)N2C` (some centres not stated), the binding call in test [27], in [12], in test [13], in [14] and in test [5] was “no binding” throughout. Besides, the Kd in [23] turned out to be 315 nM; in test [24], 249 nM; in test [15], 357 nM; in test [25], 1100 nM.

As a reminder, the Kd is the free concentration of one partner at which half of the binding sites on the other are occupied at equilibrium, for simple one-to-one binding.
